# Data taken from patent US7126676B2, “Spectral analysis of light scattered from clotting blood” (priority 2002, dated 2006).
# Read-outs that look alike come from different tables or passages of the source.
# Assays:
# [1] = tested on: clotting native whole blood; settings: for Ratio of Post-treatment to Pre-treatment Value of Logistic Parameter B: two hours after ingestion, same subject
# clotting = settings: cited from earlier work
# [2] = rofecoxib-treated arm compared with naproxen; cited from earlier work
smiles,measurement,setting,value
CC(=O)Oc1ccccc1C(=O)O [Aspirin],Ratio of Post-treatment to Pre-treatment Value of Logistic Parameter B,"[1]; 470 nm, Aspirin 325 mg single dose",4.48
same,Ratio of Post-treatment to Pre-treatment Value of Logistic Parameter B,"[1]; 550 nm, Aspirin 325 mg single dose",1.45
same,Ratio of Post-treatment to Pre-treatment Value of Logistic Parameter B,"[1]; 610 nm, Aspirin 325 mg single dose",2.18
same,Ratio of Post-treatment to Pre-treatment Value of Logistic Parameter B,"[1]; 700 nm, Aspirin 325 mg single dose",1.85
Cc1ccc(-c2cc(C(F)(F)F)nn2-c2ccc(S(N)(=O)=O)cc2)cc1 [Celecoxib],Ratio of Post-treatment to Pre-treatment Value of Logistic Parameter B,"[1]; 470 nm, Celecoxib 400 mg single dose",0.087
same,Ratio of Post-treatment to Pre-treatment Value of Logistic Parameter B,"[1]; 550 nm, Celecoxib 400 mg single dose",0.154
same,Ratio of Post-treatment to Pre-treatment Value of Logistic Parameter B,"[1]; 610 nm, Celecoxib 400 mg single dose",0.055
same,Ratio of Post-treatment to Pre-treatment Value of Logistic Parameter B,"[1]; 700 nm, Celecoxib 400 mg single dose",0.107
COc1ccc2cc([C@H](C)C(=O)O)ccc2c1 [Naproxen],Ratio of Post-treatment to Pre-treatment Value of Logistic Parameter B,"[1]; 470 nm, Naproxen 600 mg single dose",1.63
same,Ratio of Post-treatment to Pre-treatment Value of Logistic Parameter B,"[1]; 550 nm, Naproxen 600 mg single dose",0.03
same,Ratio of Post-treatment to Pre-treatment Value of Logistic Parameter B,"[1]; 610 nm, Naproxen 600 mg single dose",0.34
same,Ratio of Post-treatment to Pre-treatment Value of Logistic Parameter B,"[1]; 700 nm, Naproxen 600 mg single dose",0.28
same,"Effect on clotting as determined by the invention, in words",[1]; at 470 nm,aspirin-like effect
same,"Effect on clotting as determined by the invention, in words","[1]; at the other wavelengths (550, 610, 700 nm)",celecoxib-like effect
CS(=O)(=O)c1ccc(C2=C(c3ccccc3)C(=O)OC2)cc1 [rofecoxib],Effect on clotting as measured by routine techniques,clotting,Neither rofecoxib nor celecoxib has any effect on clotting
same,Incidence of thrombotic events,[2],higher incidence of thrombotic events
